Format in all cases: cell-based
Experiment [1] addresses T1, ADGRF1 (Homo sapiens, UniProt Q5T601, K791A).
T1 construct: Flag (N); expressed in transfected cells; host or cells: HEK293F
T1 sequence (Q5T601 20-910 K791A): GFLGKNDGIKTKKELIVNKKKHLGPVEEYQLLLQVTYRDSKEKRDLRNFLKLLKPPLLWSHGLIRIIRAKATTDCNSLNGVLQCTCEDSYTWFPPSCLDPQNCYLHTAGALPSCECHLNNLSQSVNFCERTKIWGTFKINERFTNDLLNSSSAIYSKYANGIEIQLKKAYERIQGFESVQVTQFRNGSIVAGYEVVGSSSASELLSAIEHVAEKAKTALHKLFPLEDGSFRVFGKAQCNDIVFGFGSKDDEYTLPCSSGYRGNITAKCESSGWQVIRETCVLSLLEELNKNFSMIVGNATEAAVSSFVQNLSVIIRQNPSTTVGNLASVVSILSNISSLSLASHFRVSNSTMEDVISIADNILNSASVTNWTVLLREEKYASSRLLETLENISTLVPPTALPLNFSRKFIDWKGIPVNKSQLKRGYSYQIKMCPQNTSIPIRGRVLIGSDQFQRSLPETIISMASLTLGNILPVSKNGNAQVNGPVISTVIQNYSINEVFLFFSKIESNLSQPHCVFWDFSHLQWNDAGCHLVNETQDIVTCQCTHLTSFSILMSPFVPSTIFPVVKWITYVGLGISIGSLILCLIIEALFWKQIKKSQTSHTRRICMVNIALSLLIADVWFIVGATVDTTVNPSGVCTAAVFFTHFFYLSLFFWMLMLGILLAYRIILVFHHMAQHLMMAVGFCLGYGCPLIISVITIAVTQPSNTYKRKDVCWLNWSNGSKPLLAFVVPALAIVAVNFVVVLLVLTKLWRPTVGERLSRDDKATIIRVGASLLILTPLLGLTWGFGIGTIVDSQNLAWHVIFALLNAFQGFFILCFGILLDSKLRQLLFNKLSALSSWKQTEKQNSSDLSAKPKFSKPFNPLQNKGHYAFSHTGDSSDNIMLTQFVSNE
Briefly: BRET assay using TRUPATH biosensors, Gs activation of ADGRF1. To be noted: Gs, ADGRF1 K791^6.40bA, n = 3. How it is done: (§1) To study the synthetic stalk peptide-induced G protein activation of ADGRD1 and ADGRF1, a BRET assay using TRUPATH biosensors was conducted to measure the proximal interaction between RLuc8 fused to the Gα subunit and GFP2 fused to the Gγ subunit. The TRUPATH suite of biosensors was obtained from Addgene (Addgene kit no. 1000000163) as a gift from B. Roth, including GαsS-RLuc8, Gαi1-RLuc8, Gβ3 and Gγ9-GFP2 as previously described.
(§2) The wild-type or mutant ADGRD1 and ADGRF1 were transiently co-transfected with plasmids encoding Gα-RLuc8 (GαsS-RLuc8 for Gs activation assay; Gαi1-RLuc8 for Gi activation assay), Gβ3 and Gγ9-GFP2 at a ratio of 2:1:1:1 (receptor plasmid, 800 ng; G protein subunit plasmids, 400 ng for each) in 2 ml HEK293F cells at a density of 1.2 × 10^6 cells per ml. Cell cultivation and receptor surface expression measurement were performed as described above. The cells were plated into 96-well white plates (40,000 cells per well) in 60 μl of assay buffer and incubated at 37 °C for 30 min. Then 10 μl of freshly prepared 50 μM coelenterazine 400a (Nanolight Technologies) was added. […] The cells were stimulated with 30 μl of synthetic stalk peptide at different concentrations and the BRET signals were monitored continuously five times. The last measurements were used in data analysis. The BRET ratios were calculated as the ratio of the GFP2 emission to RLuc8 emission.
(Bioluminescence resonance energy transfer reports proximity on the nanometre scale.)

In experiment [2] the target is T2, ADGRF1 (Homo sapiens, UniProt Q5T601, V689A).
T2 construct: Flag (N); expressed in transfected cells; host or cells: HEK293F
T2 sequence (Q5T601 20-910 V689A): T1 sequence (Q5T601 20-910 K791A) with V670A, A772K
The experiment is described as above. To be noted: Gs, ADGRF1 V689^ICL2A, n = 3. On the procedure: as §1, §2

In experiment [3] the target is T3, ADGRF1 (Homo sapiens, UniProt Q5T601, Y668A).
T3 construct: Flag (N); expressed in transfected cells; host or cells: HEK293F
T3 sequence (Q5T601 20-910 Y668A): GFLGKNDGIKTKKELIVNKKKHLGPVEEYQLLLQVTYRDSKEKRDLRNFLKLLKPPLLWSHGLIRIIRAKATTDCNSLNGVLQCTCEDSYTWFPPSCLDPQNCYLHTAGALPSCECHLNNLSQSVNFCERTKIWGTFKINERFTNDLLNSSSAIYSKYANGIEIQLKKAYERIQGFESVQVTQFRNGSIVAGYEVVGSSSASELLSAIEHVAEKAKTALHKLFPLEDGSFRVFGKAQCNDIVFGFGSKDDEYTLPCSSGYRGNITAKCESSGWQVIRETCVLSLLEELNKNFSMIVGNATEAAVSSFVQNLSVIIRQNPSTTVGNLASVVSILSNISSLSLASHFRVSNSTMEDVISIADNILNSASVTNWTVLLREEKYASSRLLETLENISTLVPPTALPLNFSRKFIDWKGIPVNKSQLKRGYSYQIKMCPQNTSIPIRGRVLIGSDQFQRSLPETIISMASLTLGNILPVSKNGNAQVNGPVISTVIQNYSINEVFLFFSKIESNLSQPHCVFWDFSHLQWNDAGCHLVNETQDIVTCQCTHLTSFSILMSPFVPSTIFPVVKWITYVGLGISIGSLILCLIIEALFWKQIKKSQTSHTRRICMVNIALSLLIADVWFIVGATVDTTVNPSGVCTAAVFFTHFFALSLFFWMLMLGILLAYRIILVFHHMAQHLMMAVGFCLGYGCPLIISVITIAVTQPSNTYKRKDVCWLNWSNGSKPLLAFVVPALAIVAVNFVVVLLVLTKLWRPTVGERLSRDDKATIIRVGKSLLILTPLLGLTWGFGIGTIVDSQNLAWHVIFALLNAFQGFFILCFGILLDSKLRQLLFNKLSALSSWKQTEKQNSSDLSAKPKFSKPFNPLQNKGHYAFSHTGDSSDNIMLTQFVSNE
Briefly: BRET assay using TRUPATH biosensors, Gi activation of ADGRF1. To be noted: ADGRF1 Y668^3.40bA. How it is done: as §1, §2

Experiment [4] deals with T4, ADGRF1 (Homo sapiens, UniProt Q5T601, P798A).
T4 construct: Flag (N); expressed in transfected cells; host or cells: HEK293F
T4 sequence (Q5T601 20-910 P798A): as the sequence (Q5T601 20-910 Y668A) above, with A649Y, P779A counted along it
The description is as above. To be noted: ADGRF1 P798^6.47bA. How it is done: as §1, §2

Experiment [5] has as its target T5, ADGRF1 (Homo sapiens, UniProt Q5T601, A683G).
T5 construct: Flag (N); expressed in transfected cells; host or cells: HEK293F
The experiment is described as above. To be noted: ADGRF1 A683^3.55bG. On the procedure: as §1, §2

Experiment [6] concerns the target T6, ADGRF1 (Homo sapiens, UniProt Q5T601, G702Y).
T6 construct: Flag (N); expressed in transfected cells; host or cells: HEK293F
Described as above. To be noted: ADGRF1 G702^4.45bY, n = 3. On the procedure:
as §1, §2

The target of experiment [7] is T7, ADGRF1 (Homo sapiens, UniProt Q5T601, G801A).
T7 construct: Flag (N); expressed in transfected cells; host or cells: HEK293F
T7 sequence (Q5T601 20-910 G801A): as the sequence (Q5T601 20-910 Y668A) above, with A649Y, G782A counted along it
Described as above. To be noted: ADGRF1 G801^6.50bA. On the procedure: as §1, §2

[8] abbreviates: read-out: pEC50 (mean ± s.e.m.) (converted).
Where [9] appears, read: n = 3, read-out: pEC50 (mean ± s.e.m.) (converted).

The source of these data is publication PMC9046087, “Structural basis of tethered agonism of the adhesion GPCRs ADGRD1 and ADGRF1” (Nature, 2022).

Numbering of substitutions follows the chain as printed. Ends that are not written are not given here.

T6 sequence (Q5T601 20-910 G702Y): as the sequence (Q5T601 20-910 Y668A) above, with A649Y, G683Y counted along it
T5 sequence (Q5T601 20-910 A683G): as the sequence (Q5T601 20-910 Y668A) above, with A649Y, A664G counted along it

In the case of TSFSILMSPFVP [pF1], the “Emax (mean ± s.e.m.)” value on ADGRF1 [1] was 79 ± 13 % of WT; on ADGRF1 [2], 77 ± 10 % of WT; at ADGRF1 [3] (n = 3), 123 ± 17 % of WT; at ADGRF1 [4] (n = 3), 94 ± 17 % of WT; at ADGRF1 [5] (n = 3), 111 ± 13 % of WT; at ADGRF1 [6], 94 ± 16 % of WT. Moreover, the “Emax (mean ± s.e.m.)” value on ADGRF1 [7] (n = 3) is listed as 127 ± 13 % of WT. Besides, the EC50 at ADGRF1 [1] (setting [8]) is 912 nM; on ADGRF1 [2] (setting [8]) it was 204 nM; on ADGRF1 [3] (setting [9]), 355 nM; on ADGRF1 [4] (setting [9]), 912 nM; at ADGRF1 [5] (setting [9]) it was 339 nM; at ADGRF1 [6], 1170 nM. Also, on ADGRF1 [7] (setting [9]), the EC50 is 347 nM.
